Experimental data taken from paper PMC11411626 (2024).

Experiments:
[1] = tested on: CAG RNA oligonucleotide (RNA, repeat) GCAGCAGCUUCGGCAGCAGC; experiment: fluorescence well-plate screening; conditions: buffer pH 7, 5 μM ligand, 1 equiv. RNA
[2] = tested on: CUG RNA motif (RNA, repeat) GGUCGCUGCUGCACGAAAGUGCUGCUGCGACC; experiment: fluorescence well-plate screening; conditions: buffer pH 7, 5 μM ligand, 1 equiv. RNA
[3] = tested on: CAG RNA oligonucleotide (RNA, repeat) GCAGCAGCUUCGGCAGCAGC; experiment: spectrophotometric titration; conditions: 2a 5 μM, RNA/2a 0–4; SpecFit 1:1 fit
[4] = no pronounced interaction, small fluorescence change

## CN(C)CCOc1ccc(/C=C2\Oc3cc(O)ccc3C2=O)cc1
[1]; [4]
  binding: no

## N=C(N)c1ccc(-c2ccc(-c3ccc(C(=N)N)cc3)o2)cc1
[1]; 57% quenching
  binding: yes

## COc1cc(/C=C2\Nc3ccccc3C2=O)ccc1OCCCN(C)C
[1]
  binding: no

## COc1ccc(/C=C2\Oc3cc(OCCN(C)C)ccc3C2=O)cc1
[1]; [4]
  binding: no

## COc1ccc(/C=C2\Oc3ccccc3C2=O)cc1
[1]
  binding: no

## O=C1/C(=C/c2c3ccccc3cc3ccccc23)Oc2ccccc21
[1]; 21% light-up, aggregation prevented titration
  binding: yes
[2]; excitation 450 nm, almost no interaction
  binding: no

## CN(C)CCOc1ccc(/C=C2\Oc3cc(OCCN(C)C)ccc3C2=O)cc1
[3]
  K: (1.4 ± 0.1) × 10^5 M^-1
[2]; absent or very weak interaction
  binding: no
